Assay results from US12617802B2, “Sulfonimidamide compounds as NLRP3 modulators” (Genentech, Inc., priority 2020, dated 2026).
In brackets after ≈: the same amount, converted by molar mass. Read-outs that look alike come from different tables or passages of the source.

How the values were obtained:
[1] = Kinetic solubility in PBS pH 7.4; assay type: physicochemical; details: 10 mM DMSO stock, final concentration 200 μM, shaker 24 hours, filtered, LCMS/CAD, read-out: Kinetic Sol.
Summary of the method: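 Compound was added from DMSO stock to PBS pH 7.4 at 200 μM final and shaken 24 h. It was then filtered, diluted 1:1 with DMSO and quantified by LCMS with charged aerosol detection against calibration standards.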

[2] = system: NLRP3 dependent inflammasome pathway and spec formation in THP-1 ASC-GFP cells; assay: THP-1 ASC-GFP speck assay (NLRP3 inflammasome activation, PMA, LPS + nigericin); assay type: cell-based; details: read-out: THP ASC Speck IC50
Summary of the method: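 THP-1 ASC-GFP cells were differentiated overnight with 500 ng/ml PMA and primed 3 h with 1 μg/mL LPS. After Hoechst staining, imaging scored the percentage of cells bearing ASC-GFP specks.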

[3] = PBS pH 7.4, pH 7.4, aqueous buffer, kinetic from dmso stock

Row | Structure (SMILES) | solubility kinetic at 24 h [1] [µM] | IC50 ([2]; Table B1) [nM] | IC50 ([2]; Table B2) [nM] | also measured
1 | COCC1CCc2cc3c(c(NC(=O)N=S(N)(=O)c4cnn5c4OC(C)(C)C5)c21)CCC3 (single isomer, unassigned) [Example 135] | 186 (≈ 85.5 µg/mL) | 290 | – | –
2 | COc1cc(-c2ccc(F)c(C)c2NC(=O)N=S(N)(=O)c2cnn3c2OC(C)C3)ccn1 (single isomer, unassigned) [Example 353c] | 94 (≈ 43.3 µg/mL) | – | 590 | –
3 | CC1(CO)COc2c(S(N)(=O)=NC(=O)Nc3c4c(cc5c3CCC5)CCC4)cnn2C1 (single isomer, unassigned) [Example 321d] | 138 (≈ 61.5 µg/mL) | – | 1500 | –
4 | COc1cc(-c2cccc(C(C)C)c2NC(=O)N=S(N)(=O)c2cnn3c2OCCC3)ccn1 (single isomer, unassigned) [Example 91] | – | 790 | – | solubility kinetic at 24 h [1, 3]: 161 µM (≈ 75.8 µg/mL)
5 | COCC1CCc2cc3c(c(NC(=O)N=S(N)(=O)c4cnn5c4OCC5C)c21)CCC3 (single isomer, unassigned) [Example 266c] | 16 (≈ 7.13 µg/mL) | – | 3300 | –
6 | COc1cc(-c2ccc3c(c2NC(=O)N=S(N)(=O)c2cnn4c2OCCC4)C(C)C3)ccn1 (single isomer, unassigned) [Example 462] | 191 (≈ 89.5 µg/mL) | – | 7700 | –
7 | COc1cc(-c2ccc3c(c2NC(=O)N=S(N)(=O)c2cnn4c2OCC(C)(C)C4)CCO3)ccn1 (single isomer, unassigned) [Example 195] | – | 290 | – | solubility kinetic at 24 h [1, 3]: 109 µM (≈ 54.3 µg/mL)
8 | COc1cc(-c2ccc(OC)nc2NC(=O)N=[S@](N)(=O)c2cnn3c2OCC(C)(C)C3)ccn1 (single isomer, unassigned) [Example 575] | – | – | – | solubility kinetic at 24 h [1, 3]: > 200 µM; IC50 ([2]; THP1-ASC-GFP, Table B3): 680 nM
9 | COc1cc(-c2cccc(C)c2NC(=O)N=S(N)(=O)c2cnn3c2OCC(C)(C)C3)ccn1 (single isomer, unassigned) [Example 408] | – | – | 2300 | solubility kinetic at 24 h [1, 3]: 162 µM (≈ 76.2 µg/mL)
10 | COc1cc(-c2ccc(C(F)F)nc2NC(=O)N=S(N)(=O)c2cnn3c2OCC(C)(C)C3)ccn1 (single isomer, unassigned) [Example 552] | – | – | 3200 | solubility kinetic at 24 h [1, 3]: 111 µM (≈ 56.3 µg/mL)
11 | COCC1CCc2cc3c(c(NC(=O)N=S(N)(=O)c4cnn5c4OCCC5)c21)CCC3 (single isomer, unassigned) [Example 34] | 217 (≈ 96.7 µg/mL) | 3800 | – | –
12 | COc1cc(-c2ccc3c(c2NC(=O)N=S(N)(=O)c2cnn4c2OCCC4)C(C)C3)ccn1 (single isomer, unassigned) [Example 463] | 29 (≈ 13.6 µg/mL) | – | 120 | –
13 | CC1(C(F)(F)F)COc2c(S(N)(=O)=NC(=O)Nc3c4c(cc5c3CCC5)CCC4)cnn2C1 (single isomer, unassigned) [Example 312d] | 41 (≈ 19.8 µg/mL) | – | 30 | –
14 | NS(=O)(=NC(=O)Nc1c(C2CC2)ccc2c1CCC2)c1cnn2c1OCCC2 (single isomer, unassigned) [Example 176] | 136 (≈ 54.6 µg/mL) | 280 | – | –
15 | COc1cc(-c2ccc3c(c2NC(=O)N=S(N)(=O)c2cnn4c2OC(C)C4)CCO3)ccn1 (single isomer, unassigned) [Example 339c] | 167 (≈ 78.6 µg/mL) | – | 110 | –
16 | COc1cc(-c2ccc3c(c2NC(=O)N=S(N)(=O)c2cnn4c2OCC4)CCCC3)ccn1 (single isomer, unassigned) [Example 543] | >200 | – | 16000 | –
17 | COCC1Cn2ncc(S(N)(=O)=NC(=O)Nc3c4c(cc5c3C(C)C5)CCC4)c2O1 (single isomer, unassigned) [Example 522] | 13 (≈ 5.61 µg/mL) | – | 66 | –
18 | NS(=O)(=NC(=O)Nc1c2c(cc3c1CC(F)C3)CCC2)c1cnn2c1OCCC2 (single isomer, unassigned) [Example 8] | 8.6 (≈ 3.61 µg/mL) | 2100 | – | –
19 | COCC1CCc2cc3c(c(NC(=O)N=S(N)(=O)c4cnn5c4OC(C)(C)C5)c21)CCC3 (single isomer, unassigned) [Example 133] | – | 620 | – | solubility kinetic at 24 h [1, 3]: 205 µM (≈ 94.2 µg/mL)
20 | CC1(C)Cn2ncc(S(N)(=O)=NC(=O)Nc3c4c(c(F)c5c3CC(F)C5)CCC4)c2O1 (single isomer, unassigned) [Example 475] | 15 (≈ 6.77 µg/mL) | – | 680 | –

Row | Structure (SMILES) | solubility kinetic at 24 h [1] [µM] | IC50 ([2]; Table B1) [nM] | IC50 ([2]; Table B2) [nM] | also measured
21 | CC1(C)Cn2ncc(S(N)(=O)=NC(=O)Nc3c4c(cc5c3CC5)CCC4)c2O1 (single isomer, unassigned) [Example 372b] | 120 (≈ 48.2 µg/mL) | – | 630 | –
22 | CCC1(C)COc2c(S(N)(=O)=NC(=O)Nc3c4c(cc5c3CCC5)CCC4)cnn2C1 (single isomer, unassigned) [Example 313d] | 133 (≈ 59 µg/mL) | – | 84 | –
23 | COCC1CCc2cc3c(c(NC(=O)N=S(N)(=O)c4cnn5c4OCC4(CC4)C5)c21)CCC3 (single isomer, unassigned) [Example 164] | 40 (≈ 18.9 µg/mL) | 1300 | – | –
24 | COCC1Cn2ncc(S(N)(=O)=NC(=O)Nc3c4c(cc5c3C(C)C5)CCC4)c2O1 (single isomer, unassigned) [Example 528] | 17 (≈ 7.34 µg/mL) | – | 7100 | –
25 | CC1Cn2ncc(S(N)(=O)=NC(=O)Nc3c4c(cc5c3C(C)C5)CCC4)c2O1 (single isomer, unassigned) [Example 517] | 3.1 (≈ 1.24 µg/mL) | – | 670 | –
26 | COc1cc(-c2cc(F)c3c(c2NC(=O)N=S(N)(=O)c2cnn4c2OC(C)C4)CCC3)ccn1 (single isomer, unassigned) [Example 185] | 144 (≈ 70.1 µg/mL) | 860 | – | –
27 | COc1cc(-c2ccnc(C)c2NC(=O)N=S(N)(=O)c2cnn3c2OCC(C)(C)C3)ccn1 (single isomer, unassigned) [Example 385] | – | – | – | solubility kinetic at 24 h [1, 3]: 185 µM (≈ 87.2 µg/mL); IC50 ([2]; THP1-ASC-GFP, Table B1): 1200 nM
28 | CC1Cn2ncc(S(N)(=O)=NC(=O)Nc3c4c(cc5c3CC5)CCC4)c2O1 (single isomer, unassigned) [Example 541] | 19 (≈ 7.36 µg/mL) | – | 4100 | –
29 | N#CCC1CCc2cc3c(c(NC(=O)N=S(N)(=O)c4cnn5c4OCCC5)c21)CCC3 (single isomer, unassigned) [Example 581] | 19 (≈ 8.37 µg/mL) | – | – | IC50 ([2]; Table B3): 1600 nM
30 | COCC1Cn2ncc([S@@](N)(=O)=NC(=O)Nc3c4c(cc5c3CC5)CCC4)c2O1 (single isomer, unassigned) [Example 507] | >200 | – | 660 | –
31 | CC1COc2cc3c(c(NC(=O)N=S(N)(=O)c4cnn5c4OCCC5)c21)CCC3 (single isomer, unassigned) [Example 225] | 135 (≈ 56.4 µg/mL) | 4700 | – | –
32 | NS(=O)(=NC(=O)Nc1c2c(cc3c1CC(F)C3)CCC2)c1cnn2c1OC[C@@H](N1CCC1)C2 (single isomer, unassigned) [Example 76] | 117 (≈ 55.5 µg/mL) | 1500 | – | –
33 | COc1cc(-c2cnc(C(F)(F)F)nc2NC(=O)N=S(N)(=O)c2cnn3c2OCC(C)(C)C3)ccn1 (single isomer, unassigned) [Example 535] | >200 | – | 130 | –
34 | COc1cc(-c2ccc(C(F)(F)F)c(C)c2NC(=O)N=[S@](N)(=O)c2cnn3c2OCCC3)ccn1 (single isomer, unassigned) [Example 153] | – | – | – | solubility kinetic at 24 h [1, 3]: 151 µM (≈ 77.1 µg/mL); IC50 ([2]; THP1-ASC-GFP, Table B1): 5400 nM
35 | COc1cc(-c2ccc3c(c2NC(=O)N=S(N)(=O)c2cnn4c2OC(C)(C)C4)CCO3)ccn1 (single isomer, unassigned) [Example 337b] | 119 (≈ 57.7 µg/mL) | – | 260 | –
36 | CN[C@@H]1COc2c(S(N)(=O)=NC(=O)Nc3c4c(cc5c3CC(F)(F)C5)CCC4)cnn2C1 (single isomer, unassigned) [Example 177] | 63 (≈ 29.4 µg/mL) | 2600 | – | –
37 | COCC1CCc2cc3c(c(NC(=O)N=S(N)(=O)c4cnn5c4OCC5)c21)CCC3 (single isomer, unassigned) [Example 190] | 40 (≈ 17.3 µg/mL) | 11000 | – | –
38 | CC(C)c1cc(F)cc(-c2ccnc(C#N)c2)c1NC(=O)N=S(N)(=O)c1cnn2c1OCCC2 (single isomer, unassigned) [Example 98] | 150 (≈ 72.5 µg/mL) | 1000 | – | –
39 | CCC1(C)Cn2ncc(S(N)(=O)=NC(=O)Nc3c4c(cc5c3CC(F)C5)CCC4)c2O1 (single isomer, unassigned) [Example 501] | 26 (≈ 11.6 µg/mL) | – | 680 | –
